How the values were obtained:
Hepatotoxicity [1] = test system: Hepatotoxicity;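 on HepSE Combined Scores: combined hepatic side effect score as listed in the training data of the Drug Induced Liver Injury Prediction System (DILIps)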;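 on HepSE cirrhosis: cirrhosis hepatic side effect score taken from the DILIps (drug-induced liver injury prediction) training set; call rule not given here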;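 on HepSE elevated liver function tests: hepatic side effect score for raised liver function tests, as recorded in the DILIps training set used for predicting drug-induced liver injury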;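 on HepSE hepatitis: Hepatitis-related hepatic side effect score taken from the training data of DILIps, a prediction system for drug-induced liver injury; call rule not given here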;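 on HepSE jaundice: Jaundice-related hepatic side-effect score drawn from the training data of the DILIps (drug-induced liver injury prediction system); call rule not given here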; on HepSE liver disease: call rule not given here;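 on HepSE liver function tests abnormal: hepatic side effect score taken from the DILIps (drug-induced liver injury prediction system) training data, here covering abnormal liver function test findings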
Hepatotoxicity [2] = test system: Hepatotoxicity; remark: listed apart in the source;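 on HepSE cirrhosis: cirrhosis hepatic side effect score taken from the DILIps (drug-induced liver injury prediction) training set; call rule not given here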;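 on HepSE elevated liver function tests: hepatic side effect score for raised liver function tests, as recorded in the DILIps training set used for predicting drug-induced liver injury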;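 on HepSE hepatitis: Hepatitis-related hepatic side effect score taken from the training data of DILIps, a prediction system for drug-induced liver injury; call rule not given here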;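 on HepSE jaundice: Jaundice-related hepatic side-effect score drawn from the training data of the DILIps (drug-induced liver injury prediction system); call rule not given here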; on HepSE liver disease: call rule not given here;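 on HepSE liver function tests abnormal: hepatic side effect score taken from the DILIps (drug-induced liver injury prediction system) training data, here covering abnormal liver function test findings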
Hepatotoxicity [3] = test system: Hepatotoxicity; remark: listed apart in the source;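 on HepSE cirrhosis: cirrhosis hepatic side effect score taken from the DILIps (drug-induced liver injury prediction) training set; call rule not given here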;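 on HepSE elevated liver function tests: hepatic side effect score for raised liver function tests, as recorded in the DILIps training set used for predicting drug-induced liver injury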;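 on HepSE hepatitis: Hepatitis-related hepatic side effect score taken from the training data of DILIps, a prediction system for drug-induced liver injury; call rule not given here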;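 on HepSE jaundice: Jaundice-related hepatic side-effect score drawn from the training data of the DILIps (drug-induced liver injury prediction system); call rule not given here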; on HepSE liver disease: call rule not given here;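 on HepSE liver function tests abnormal: hepatic side effect score taken from the DILIps (drug-induced liver injury prediction system) training data, here covering abnormal liver function test findings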
Hepatotoxicity [4] = test system: Hepatotoxicity; remark: listed apart in the source;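 on HepSE cirrhosis: cirrhosis hepatic side effect score taken from the DILIps (drug-induced liver injury prediction) training set; call rule not given here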;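 on HepSE elevated liver function tests: hepatic side effect score for raised liver function tests, as recorded in the DILIps training set used for predicting drug-induced liver injury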;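 on HepSE hepatitis: Hepatitis-related hepatic side effect score taken from the training data of DILIps, a prediction system for drug-induced liver injury; call rule not given here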;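 on HepSE jaundice: Jaundice-related hepatic side-effect score drawn from the training data of the DILIps (drug-induced liver injury prediction system); call rule not given here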; on HepSE liver disease: call rule not given here;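 on HepSE liver function tests abnormal: hepatic side effect score taken from the DILIps (drug-induced liver injury prediction system) training data, here covering abnormal liver function test findings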
Hepatotoxicity [5] = test system: Hepatotoxicity; remark: listed apart in the source; on HepSE liver disease: call rule not given here
Hepatotoxicity [6] = test system: Hepatotoxicity; remark: listed apart in the source; on HepSE liver disease: call rule not given here
Hepatotoxicity [7] = test system: Hepatotoxicity; remark: listed apart in the source
Hepatotoxicity [8] = test system: Hepatotoxicity; remark: listed apart in the source
Hepatotoxicity [9] = test system: Hepatotoxicity; remark: listed apart in the source
Hepatotoxicity [10] = test system: Hepatotoxicity; remark: listed apart in the source
Hepatotoxicity [11] = test system: Hepatotoxicity; remark: listed apart in the source
Hepatotoxicity [12] = test system: Hepatotoxicity; remark: listed apart in the source
Hepatotoxicity [13] = test system: Hepatotoxicity; remark: listed apart in the source
Hepatotoxicity [14] = test system: Hepatotoxicity; remark: listed apart in the source

Structure (SMILES) | HepSE_hepatitis (Hepatotoxicity [1]) | HepSE_elevated liver function tests (Hepatotoxicity [2]) | HepSE_liver function tests abnormal (Hepatotoxicity [3]) | HepSE_jaundice (Hepatotoxicity [4]) | HepSE_cirrhosis (Hepatotoxicity [5]) | HepSE_liver disease (Hepatotoxicity [6]) | HepSE_Combined Scores (Hepatotoxicity [7]) | HepSE_hepatomegaly (Hepatotoxicity [8]) | HepSE_cholelithiasis (Hepatotoxicity [9]) | HepSE_liver fatty (Hepatotoxicity [10]) | HepSE_cholecystitis (Hepatotoxicity [11]) | HepSE_bilirubinemia (Hepatotoxicity [12]) | HepSE_hepatic failure (Hepatotoxicity [13]) | HepSE_hepatic necrosis (Hepatotoxicity [14]) | further results
CC(C)(C)NC[C@H](O)COc1ccccc1C1CCCC1 [PENBUTOLOL] | 0 | 0 | 0 | 0 | 0 | 0 | 0 | 0 | 0 | 0 | 0 | 0 | 0 | 0 | 
Nc1nc2c(ncn2CCC(CO)CO)c(=O)[nH]1 [PENCICLOVIR] | 0 | 0 | 0 | 0 | 0 | 0 | 0 | 0 | 0 | 0 | 0 | 0 | 0 | 0 | 
CC(C)(S)[C@@H](N)C(=O)O [PENICILLAMINE] | 0 | 0 | 0 | 0 | 0 | 0 | 1 | 0 | 0 | 0 | 0 | 0 | 1 | 0 | 
CC1(C)S[C@@H]2[C@H](NC(=O)Cc3ccccc3)C(=O)N2[C@H]1C(=O)O [PENICILLIN G] | 0 | 0 | 0 | 0 | 0 | 0 | 0 | 0 | 0 | 0 | 0 | 0 | 0 | 0 | 
CC1(C)S[C@@H]2[C@H](NC(=O)COc3ccccc3)C(=O)N2[C@H]1C(=O)O [PENICILLIN V] | 0 | 0 | 0 | 0 | 0 | 0 | 0 | 0 | 0 | 0 | 0 | 0 | 0 | 0 | 
CCCC(C)C1(CC)C(=O)NC(=O)NC1=O (configuration not stated) [PENTOBARBITAL] | 0 | 0 | 0 | 0 | 0 | 0 | 0 | 0 | 0 | 0 | 0 | 0 | 0 | 0 | 
OC[C@H]1O[C@@H](n2cnc3c2NC=NC[C@H]3O)C[C@@H]1O [PENTOSTATIN] | 0 | 1 | 1 | 0 | 0 | 1 | 3 | 0 | 0 | 0 | 0 | 0 | 0 | 0 | 
CC(=O)CCCCn1c(=O)c2c(ncn2C)n(C)c1=O [PENTOXIFYLLINE] | 1 | 0 | 0 | 1 | 0 | 0 | 3 | 0 | 0 | 0 | 1 | 0 | 0 | 0 | 
CCCN1C[C@H](CSC)C[C@@H]2c3cccc4[nH]cc(c34)C[C@H]21 [PERGOLIDE] | 1 | 0 | 1 | 1 | 0 | 0 | 6 | 1 | 1 | 0 | 1 | 0 | 0 | 0 | 
CCC[C@H](N[C@@H](C)C(=O)N1[C@H](C(=O)O)C[C@@H]2CCCC[C@@H]21)C(=O)OCC [PERINDOPRIL] | 1 | 0 | 0 | 1 | 0 | 0 | 3 | 0 | 0 | 0 | 0 | 0 | 1 | 0 | 
CC1(C)C(C=C(Cl)Cl)C1C(=O)OCc1cccc(Oc2ccccc2)c1 (configuration not stated) [PERMETHRIN] | 0 | 0 | 0 | 0 | 0 | 0 | 0 | 0 | 0 | 0 | 0 | 0 | 0 | 0 | 
OCCN1CCN(CCCN2c3ccccc3Sc3ccc(Cl)cc32)CC1 [PERPHENAZINE] | 0 | 0 | 0 | 1 | 0 | 0 | 1 | 0 | 0 | 0 | 0 | 0 | 0 | 0 | 
NNCCc1ccccc1 [PHENELZINE] |  |  |  |  |  |  |  |  |  |  |  |  |  |  | HepSE_hepatitis (Hepatotoxicity [1]; Liver): 0; HepSE_elevated liver function tests (Hepatotoxicity [2]; Liver): 0; HepSE_liver function tests abnormal (Hepatotoxicity [3]; Liver): 0; HepSE_jaundice (Hepatotoxicity [4]; Liver): 1; HepSE_cirrhosis (Hepatotoxicity [5]; Liver): 0; HepSE_liver disease (Hepatotoxicity [6]; Liver): 0; HepSE_Combined Scores (Hepatotoxicity [7]; Liver): 1; HepSE_hepatomegaly (Hepatotoxicity [8]; Liver): 0; HepSE_cholelithiasis (Hepatotoxicity [9]; Liver): 0; HepSE_liver fatty (Hepatotoxicity [10]; Liver): 0; HepSE_cholecystitis (Hepatotoxicity [11]; Liver): 0; HepSE_bilirubinemia (Hepatotoxicity [12]; Liver): 0; HepSE_hepatic failure (Hepatotoxicity [13]; Liver): 0; HepSE_hepatic necrosis (Hepatotoxicity [14]; Liver): 0

Reference: ChEMBL document CHEMBL1909294, “Translating clinical findings into knowledge in drug safety evaluation--drug induced liver injury prediction system (DILIps)” (PLoS Comput Biol, 2011)
